Reference: patent US20100130598A1, “METHODS FOR INDUCING PROGRAMMED CELL DEATH” (Novogen Research Pty Ltd., priority 2008, published 2010)

What was measured:
[1] = system: AIF and EndoG; experiment: Western blot of nuclear fractions for AIF and EndoG; assay type: cell-based, human; conditions: EOC cells, 10 μg/ml
Excerpt: Protein preparation and cellular fractionation. After drug treatment, protein was extracted and measured as previously described (Alvero et al, 2006). For separation of the cytoplasmic and mitochondrial fractions, cell pellets were processed using the ApoAlert™ Cell Fractionation Kit (BD Biosciences, San Jose, Calif.) according to the manufacturer's instructions. For separation of the cytoplasmic and nuclear fractions, pellets were processed using NE-PER Nuclear and Cytoplasmic Extraction (Pierce Biotechnology, Inc., Rockford, Ill.).
SDS-PAGE and Western blots. Cell lysates (20 μg protein) were denatured in sample buffer (2.5% SDS, 10% glycerol, 5% β-mercapto-ethanol, 0.15 M Tris (pH=6.8) and 0.01% bromophenol blue) and subjected to 12% SDS-PAGE as previously described (Kamsteeg et al, 2003). […]

[2] = system: phospho-S6 kinase (p-S6K); experiment: Western blot of lysed xenograft tumors for p-S6k; assay type: in vivo, NCR nude mice; conditions: tumors from treated animals vs vehicle control
Protocol: SDS-PAGE and Western blots. Cell lysates (20 μg protein) were denatured in sample buffer (2.5% SDS, 10% glycerol, 5% β-mercapto-ethanol, 0.15 M Tris (pH=6.8) and 0.01% bromophenol blue) and subjected to 12% SDS-PAGE as previously described (Kamsteeg et al, 2003). The following antibodies and concentrations were used: mouse anti-XIAP (BD, 1:1,000), rabbit anti-MAP LC3 (1:200), rabbit anti-actin (Sigma, 1:10,000), rabbit anti-phosphorylated Akt (Cell Signaling, 1:1,000), rabbit anti-Akt (Cell Signaling, 1:1000), rabbit anti-phosphorylated mTOR (Cell Signaling, 1:1000), rabbit anti-mTOR (Cell Signaling, 1:1000), rabbit anti-cytochrome c (Clontech Laboratories, Inc, Mountainview, Calif., 1:100), rabbit anti-Omi (R&D Systems, Minneapolis, Minn., 1:5000), rabbit anti-Bid (Cell Signaling, 1:1000), mouse anti-Bax (BD Pharmingen, 1:250), rabbit anti-VDAC (Sigma Aldrich, 1:2000), mouse anti-Bcl2 (BD Pharmingen, 1:500), rabbit anti-AIF (Sigma Aldrich, 1:1000), rabbit anti-EndoG (Sigma Aldrich, 1:1000), mouse anti-topoisomerase I (BD Pharmingen, 1:10,000). Proteins were visualized using enhanced chemiluminescence (Pierce, Rockford Ill.).
Mouse xenograft studies. […] Tumor size was determined by caliper measurements and anti-tumor activity was analyzed with respect to maximal tumor inhibition (treated/control, T/C) as described previously (Kamsteeg et al, 2003).

[3] = system: Caspase 2, 3 and 9 in PANC-1 cells; experiment: In situ caspase activity by flow cytometry, PANC-1; assay type: cell-based, human; conditions: PANC-1, 10 μM, after 48 hrs
Protocol: (§1) Cells. Human pancreatic cell lines HPAC, MIAPaCa-2 and PANC-1 were obtained from the ATCC. (Manassas, Va.). The cells were maintained in DMEM media with Gln and high glucose (Mediatech, Manassas, Va.) with 10% fetal bovine serum (FBS, HyClone, Logan, Utah) and pencillin/streptomycin.
Caspase Activity After 48 h treatment with 10 μM Compound 10, HPAC, MIAPaCa-2 and PANC-1 cells were harvested by trypsinization and resuspended in DMEM media with 10% FBS. The cells were incubated with caspase substrates for 1 h at 37° C., 5% CO2, then probed with Annexin-V-Cy5 and sytox blue. Caspase +ve cells were gated as shown in the histograms and these cells are indicated on the Annexin-V-Cy5/sytox blue spectra as blue cells. In situ caspase activity was assayed using fluorescent substrates. For Caspase 2, FITC-VDVAD-fmk (Biovision K182-100), for Caspase 3, FITC-DEVD-fmk (K183-100) and for Caspase 9, FITC-LEHD-fmk (K199-100) was used. These substrates bind irreversibly to their respective activated caspases, and caspase activation was quantitated by flow cytometry. […] Caspase activation, apoptosis and necrosis were measured simultaneously using a violet, blue and red laser in a BD LSRII flow cytometer.

[4] = system: MIAPaCa-2 cells; experiment: Western blot analysis of apoptosis regulatory proteins, p21 and p53, MIAPaCa-2; assay type: cell-based, human
Excerpt: as §1
Antibodies. Antibodies utilised in this study specific to p53 and, p21 were obtained from (Calbiochem, EMD, San Diego, Calif.), Caspase 9, XIAP, COX IV, Bcl2 and Akt (Cell Signaling Technology, Danvers, Mass.), Caspase 2, Cytochrome c and Bid (BD Pharmingen, San Diego, Calif.). GAPDH (RDI, Concord, Mass.) or β-actin (Sigma, St. Louis, Mo.) was used as a housekeeping gene to standardize the protein loading on the gels and blots.
Western blot analysis. Cells were seeded on 100 mm tissue culture plates and grown overnight to ˜90% confluence. Cells were then treated with the drug combinations for indicated time points. After the final treatment step, the cells were lysed with 500 μL of a lysis buffer containing 1% Nonidet P-40, 0.1% SDS, 0.5% deoxycholate, 150 mM NaCl, 50 mM Tris-HCl pH7.5, 1 mM EDTA, 1 mM PMSF and protease inhibitors (Roche) on ice for 30 minutes. Cell lysates were harvested with a sterile cell scraper and centrifuged at 15,000×g for 15 minutes to remove cell debris. Protein was assayed by the BCA method (Pierce) and 50 μg aliquots were separated on 12%, T, 2.6%C SDS-PAGE gels. Proteins were electrophoretically transferred to PVDF membranes (Immobilon P, Millipore, Billerica, Mass.) by the wet transfer method. These membranes were probed with specific antibodies and with anti-GAPDH which was used as the housekeeping gene to standardize the protein loading. The blots were developed on X-ray films using HRP-conjugated secondary antibodies (Southern Biotech, Birmingham, Ala.) and a chemiluminescent substrate (ECL, Amersham, N.Y.).

Row | SMILES | level of nuclear AIF [1] | level of nuclear EndoG [1] | p-S6k in tumors [2] | caspase 2, 3 and 9 activation [3] | expression of p53 ([4]; MIAPaCa-2 (mutant p53), 10 μM) | cleavage of Caspase 3 ([4]; MIAPaCa-2, 10 μM) | full-length Caspase 2 (48Kd) cleavage ([4]; MIAPaCa-2, 10 μM) | levels of Bcl2 ([4]; MIAPaCa-2, 10 μM) | p21 ([4]; MIAPaCa-2, 10 μM) | total Akt ([4]; MIAPaCa-2, 10 μM, early timepoint (4 hr)) | Bid cleavage ([4]; MIAPaCa-2, 10 μM, over time) | cleaved caspase 9 (17kd) ([4]; MIAPaCa-2, 10 μM, time course 0-48 hrs) | level of XIAP ([4]; MIAPaCa-2, 10 μM, degradation more pronounced than in HPAC)
1 | COc1ccc(C2c3ccc(O)c(C)c3OCC2c2ccc(O)cc2)cc1 (stereo not shown) [Compound 1, 3-(4-hydroxyphenyl)-4-(4-methoxyphenyl)-8-methylchroman-7-ol] | not | increase | significant decrease | – | – | – | – | – | – | – | – | – | –
2 | COc1ccc(C2c3ccc(O)cc3OCC2c2ccc(O)cc2)cc1 (stereo not shown) [Compound 10, 3-(4-hydroxyphenyl)-4-(4-methoxyphenyl)chroman-7-ol] | – | – | – | activated | unaffected | did not cause significant cleavage | cleaved | lowered | elevated | reduced | induced Bid cleavage over time | initial drop in cleaved caspase 9 (17kd) followed by an increase after 16 hr | reduced
